Measurements as given in patent publication US5006650A, “Novel N-1 substituted beta-lactams as antibiotics” (The Upjohn Company, priority 1989, dated 1991).
In brackets after ≈: the same amount, converted by molar mass.

Tests used:
Assay in all cases: MIC, agar dilution in Mueller Hinton Agar
Type in all cases: cell-based
[1] = test system: Pseudomonas Aeruginosa 231; conditions: culture 231, MHA, 35° C., 20 hours, read-out: Minimum Inhibitory Concentration
Experimental: (§1) The compounds of this invention and their respective pharmacologically acceptable salts have antibiotic activity against a variety of gram-negative bacteria including Escherichia coli, Klebsiella pneumoniae, and Pseudomonas aeruginosa. The compounds are useful for treating bacterial infections in animals, including and most preferably humans. Compounds of the invention are tested for in vitro antimicrobial activity using standard testing procedures such as the determination of minimum inhibitory concentration (MIC) by methods described in "Methods for Dilution Antimicrobial Susceptibility Tests for Bacteria That Grow Aerobically" (M7-A) Published December 1985 by the National Committee for Clinical Laboratory Standards, 771 East Lancaster Avenue, Villanova, Pa. 19084. Briefly, MIC values are determined in unsupplemented Mueller Hinton Agar (MHA). The compounds tested are diluted serially into molten MHA at 47 C. The agar is poured into petri dishes and allowed to harden. The various bacteria used for testing are grown overnight on MHA at 35 C. and transferred to Tryptiease Soy Broth (TSB) until a turbidity of 0.5 McFarland standard is obtained. The bacteria are diluted one to twenty in TSB and inoculated on the plates (1 μl using a Steers replicator).

[2] = test system: Staphylococcus Aureus 3665; conditions: AUREUS3665, culture 3665, MHA, 35° C., 20 hours, read-out: Minimum Inhibitory Concentration
Experimental: as §1

[3] = test system: Staphylococcus Aureus 9218; conditions: AUREUS9218, culture 9218, MHA, 35° C., 20 hours, read-out: Minimum Inhibitory Concentration
Experimental: as §1

[4] = test system: Escherichia Coli 9379; conditions: COLI9379, culture 9379, MHA, 35° C., 20 hours, read-out: Minimum Inhibitory Concentration
Experimental: as §1

[5] = test system: Klebsiella Oxytoca 9384; conditions: OXYTOCA9384, culture 9384, MHA, 35° C., 20 hours, read-out: Minimum Inhibitory Concentration
Experimental: as §1

[6] = test system: Streptococcus Faecalis 694; conditions: Enterococcus faecalis, culture 694, MHA, 35° C., 20 hours, read-out: Minimum Inhibitory Concentration
Experimental: as §1

[7] = test system: Klebsiella Pneumoniae 58; conditions: culture 58, MHA, 35° C., 20 hours, read-out: Minimum Inhibitory Concentration
Experimental: as §1

[8] = test system: Streptococcus Pneumoniae 41; conditions: culture 41, MHA, 35° C., 20 hours, read-out: Minimum Inhibitory Concentration
Experimental: as §1

[9] = test system: Proteus Vulgaris 9679; conditions: culture 9679, MHA, 35° C., 20 hours, read-out: Minimum Inhibitory Concentration
Experimental: as §1

[10] = test system: Escherichia Coli 9451; conditions: COLI9451, culture 9451, MHA, 35° C., 20 hours, read-out: Minimum Inhibitory Concentration
Experimental: as §1

[11] = test system: Escherichia Coli 9380; conditions: COLI9380, culture 9380, MHA, 35° C., 20 hours, read-out: Minimum Inhibitory Concentration
Experimental: as §1

[12] = test system: Pseudomonas Aeruginosa 9191; conditions: culture 9191, MHA, 35° C., 20 hours, read-out: Minimum Inhibitory Concentration
Experimental: as §1

[13] = test system: Serratia Marcescens 6888; conditions: culture 6888, MHA, 35° C., 20 hours, read-out: Minimum Inhibitory Concentration
Experimental: as §1

[14] = test system: Staphylococcus Aursus 6685; conditions: AURSUS6685, culture 6685, MHA, 35° C., 20 hours, read-out: Minimum Inhibitory Concentration
Experimental: as §1

[15] = test system: Klebsiella Oxytoca 9383; conditions: OXYTOCA9383, culture 9383, MHA, 35° C., 20 hours, read-out: Minimum Inhibitory Concentration
Experimental: as §1

[16] = test system: Streptococcus Pyogenes 152; conditions: culture 152, MHA, 35° C., 20 hours, read-out: Minimum Inhibitory Concentration
Experimental: as §1

[17] = test system: Enterobacter Cloacae 9382; conditions: CLOACAE9382, culture 9382, MHA, 35° C., 20 hours, read-out: Minimum Inhibitory Concentration
Experimental: as §1

[18] = test system: Enterobacter Cloacae 9381; conditions: CLOACAE9381, culture 9381, MHA, 35° C., 20 hours, read-out: Minimum Inhibitory Concentration
Experimental: as §1

[19] = test system: Citrobacter Freundli 3507; conditions: culture 3507, MHA, 35° C., 20 hours, read-out: Minimum Inhibitory Concentration
Experimental: as §1

`CC(C)(ON=C(C(=O)NC1CN(C(=O)NS(=O)(=O)n2ncn(NC(=O)c3cc(=O)c(O)c[nH]3)c2=O)C1=O)c1csc(N)n1)C(=O)O` (centres unmarked) [Compound U-77938] gave an MIC [1] of 0.125 µg/mL (≈ 0.183 µM), an MIC [2] greater than 128 µg/mL and an MIC [3] greater than 128 µg/mL. The MIC [4] was greater than 0.015 µg/mL, the MIC [5] was 0.06 µg/mL (≈ 0.0878 µM) and the MIC [6] was greater than 128 µg/mL. For the same compound, the MIC [7] was 0.25 µg/mL (≈ 0.366 µM), the MIC [8] was 128 µg/mL (≈ 187 µM) and the MIC [9] was 0.03 µg/mL (≈ 0.0439 µM). For the same compound, the MIC [10] was greater than 0.015 µg/mL, the MIC [11] was greater than 0.015 µg/mL and the MIC [12] was 0.25 µg/mL (≈ 0.366 µM). For the same compound, the MIC [13] was 0.03 µg/mL (≈ 0.0439 µM), the MIC [14] was greater than 128 µg/mL and the MIC [15] was 0.125 µg/mL (≈ 0.183 µM). It also gave an MIC [16] of 16 µg/mL (≈ 23.4 µM), an MIC [17] of 0.5 µg/mL (≈ 0.731 µM) and an MIC [18] of 16 µg/mL (≈ 23.4 µM). For the same compound, the MIC [19] was 0.06 µg/mL (≈ 0.0878 µM).
`Nc1nc(C(=NOCC(=O)O)C(=O)N[C@H]2CN(C(=O)NS(=O)(=O)n3ncn(NC(=O)c4cc(=O)c(O)c[nH]4)c3=O)C2=O)cs1` [Compound U-78284] was tested, and the MIC [1] was 2 µg/mL (≈ 3.05 µM), the MIC [2] was greater than 64 µg/mL and the MIC [3] was greater than 64 µg/mL. For the same compound, the MIC [4] was greater than 0.008 µg/mL, the MIC [5] was 0.03 µg/mL (≈ 0.0458 µM) and the MIC [6] was greater than 64 µg/mL. The MIC [7] was 0.25 µg/mL (≈ 0.381 µM), the MIC [8] was 64 µg/mL (≈ 97.6 µM) and the MIC [9] was 0.125 µg/mL (≈ 0.191 µM). For the same compound, the MIC [10] was 0.015 µg/mL (≈ 0.0229 µM), the MIC [11] was greater than 0.008 µg/mL and the MIC [12] was 2 µg/mL (≈ 3.05 µM). It also gave an MIC [13] of 0.03 µg/mL (≈ 0.0458 µM), an MIC [14] greater than 64 µg/mL and an MIC [15] of 0.25 µg/mL (≈ 0.381 µM). The MIC [16] was 32 µg/mL (≈ 48.8 µM), the MIC [17] was 0.25 µg/mL (≈ 0.381 µM) and the MIC [18] was 16 µg/mL (≈ 24.4 µM). The MIC [19] was 0.06 µg/mL (≈ 0.0915 µM).
